Entries after “also recorded” stand apart in the source; their conditions may differ.
Legend:
Dop [1] = target: T1, Dop (Mycolicibacterium smegmatis, UniProt A0QZ49); test: ATP competition assay / KM of ATP for Dop; format: biochemical, M. smegmatis
T1 sequence (A0QZ49 1-498): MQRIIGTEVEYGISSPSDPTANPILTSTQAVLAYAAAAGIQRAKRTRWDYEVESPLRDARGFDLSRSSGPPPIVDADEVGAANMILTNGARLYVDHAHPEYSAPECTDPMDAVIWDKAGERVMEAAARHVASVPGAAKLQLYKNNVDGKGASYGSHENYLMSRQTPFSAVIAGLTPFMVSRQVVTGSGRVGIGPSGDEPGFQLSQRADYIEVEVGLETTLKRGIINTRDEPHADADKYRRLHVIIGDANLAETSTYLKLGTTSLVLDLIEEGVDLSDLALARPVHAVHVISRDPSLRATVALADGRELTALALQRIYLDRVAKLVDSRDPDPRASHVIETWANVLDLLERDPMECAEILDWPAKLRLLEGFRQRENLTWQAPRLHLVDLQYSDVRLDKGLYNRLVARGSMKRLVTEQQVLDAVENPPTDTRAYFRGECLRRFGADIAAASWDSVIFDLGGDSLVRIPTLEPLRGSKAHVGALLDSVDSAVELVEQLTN

Dop [2] = target: T1, Dop; format: biochemical, M. smegmatis; details: 100 μM inhibitor; 10 nM Dop; 250 nM FabD-Pup; 30 min
PafA [3] = target: T2, PafA (Mycobacterium tuberculosis, UniProt P9WNU7); format: biochemical, Mtb; details: 100 μM inhibitor; 50 nM PafA; 2 hours
T2 sequence (P9WNU7 1-452): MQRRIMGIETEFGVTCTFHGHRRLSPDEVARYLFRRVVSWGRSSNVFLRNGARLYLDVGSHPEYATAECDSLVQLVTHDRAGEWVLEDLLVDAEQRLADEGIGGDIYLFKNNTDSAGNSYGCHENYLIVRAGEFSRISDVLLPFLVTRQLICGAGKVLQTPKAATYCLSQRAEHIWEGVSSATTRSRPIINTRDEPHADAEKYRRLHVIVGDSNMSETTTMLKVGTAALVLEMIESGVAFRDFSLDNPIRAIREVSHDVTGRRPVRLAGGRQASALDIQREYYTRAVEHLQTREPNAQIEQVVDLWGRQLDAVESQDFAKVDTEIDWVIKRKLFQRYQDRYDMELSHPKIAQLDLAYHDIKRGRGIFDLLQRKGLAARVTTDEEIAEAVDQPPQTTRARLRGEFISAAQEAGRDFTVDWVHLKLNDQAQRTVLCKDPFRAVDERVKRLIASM

PafA [4] = target: T2, PafA; format: biochemical, Mtb; details: 100 µM inhibitor; 250 nM FabD; 50 nM PafA; six hours
Dop [5] = target: T1, Dop; test: biochemical; format: biochemical, M. smegmatis
Dop [6] = target: T1, Dop; test: Jump-dilution assay; format: biochemical, M. smegmatis
PafA [7] = target: T2, PafA; format: biochemical, Mtb; details: 100 µM compound; 50 nM PafA; 2 hours

SMILES: Nc1ncnc2c1ncn2[C@@H]1O[C@H](COP(=O)(O)OP(=O)(O)OP(=O)(O)O)[C@@H](O)[C@H]1O [ATP]
- Km (Dop [1]; read-out: KM of ATP for Dop, Michaelis-Menten curve of Dop vs. [ATP]): 320 ± 30 µM

SMILES: COc1cc(/C=C(\C#N)C(=O)c2ccc(O)c(O)c2)cc(I)c1O [Compound 1, I-OMe-Tyrphostin AG538]
- Inhibition of depupylation of FabD-Pup by Dop (Dop [2]): incompletely inhibited
- Inhibition of depupylation of FabD-Pup by PafA (PafA [3]): partly inhibited
- Inhibition of pupylation of FabD by PafA (ligase activity) (PafA [4]): partly inhibited
- IC50 at 10-fold increased Dop concentration (ratio test) (Dop [5]): 0.70 ± 0.03 μM
- IC50 at routine Dop concentration (ratio test) (Dop [5]; 30 nM Dop): 0.26 ± 0.06 µM
- Dop activity after 100-fold dilution (jump-dilution) (Dop [6]): Complete restoration of Dop activity
- Change of IC50 with ATP concentration (Dop [1]; eight ATP concentrations, 0.1–6.4 mM): did not significantly increase
- Inhibition of depupylation of Ino1-Pup by PafA (PafA [7]): partially inhibited

SMILES: N#C/C(=C\c1ccc(O)c(O)c1)C(=O)c1ccc(O)c(O)c1 [Compound 2, Tyrphostin AG538]
- Inhibition of depupylation of FabD-Pup by Dop (Dop [2]): failed to inhibit; also recorded: did not inhibit; also recorded: leaving Dop activity intact
- Inhibition of depupylation of FabD-Pup by PafA (PafA [3]): completely inhibited; also recorded: fully inhibits; also recorded: efficiently inhibit
- Inhibition of pupylation of FabD by PafA (ligase activity) (PafA [4]): completely inhibited; also recorded: fully inhibits; also recorded: efficiently inhibit
- Inhibition of depupylation of Ino1-Pup by PafA (PafA [7]): partially inhibited

SMILES: COc1cc(/C=C(\C#N)C(=O)c2ccccc2)cc(I)c1O [Compound 5a]
- IC50 (Dop [5]): 5.4 ± 0.5 µM

SMILES: N#C/C(=C\c1ccccc1)C(=O)c1ccccc1 [Compound 5b]
- IC50 (Dop [5]): > 100 µM

SMILES: COc1cc(/C=C(\C#N)C(=O)c2ccc(O)c(O)c2)ccc1O [Compound 10a]
- IC50 (Dop [5]): > 100 µM

SMILES: COc1cc(/C=C(\C#N)C(=O)c2ccc(O)c(O)c2)cc([N+](=O)[O-])c1O [Compound 10b]
- IC50 (Dop [5]): 4.1 ± 0.1 µM

SMILES: COc1cc(/C=C(\C#N)C(=O)c2ccc(O)c(O)c2)cc(Br)c1O [Compound 10i]
- Inhibition of depupylation of FabD-Pup by PafA (PafA [3]): partly inhibited
- Inhibition of pupylation of FabD by PafA (ligase activity) (PafA [4]): partly inhibited
- IC50 (Dop [5]): 2.7 ± 0.2 µM

SMILES: N#C/C(=C\c1cc(O)c(O)c(I)c1)C(=O)c1ccc(O)c(O)c1 [Compound 10k]
- Inhibition of depupylation of FabD-Pup by PafA (PafA [3]): completely inhibited
- Inhibition of pupylation of FabD by PafA (ligase activity) (PafA [4]): completely inhibited
- IC50 (Dop [5]): 0.29 ± 0.01 µM
- Inhibition of depupylation of Ino1-Pup by PafA (PafA [7]): fully inhibited

SMILES: COc1cc(/C=C/C(=O)c2ccccc2)cc(I)c1O [Compound 12]
- IC50 (Dop [5]): 29 µM
- Decrease in potency compared to 1 (Dop [5]; ratio of IC50 values vs compound 1): 60 fold

SMILES: COc1cc(/C=C(\C#N)C(O)c2ccccc2)cc(I)c1O (stereo not shown) [Compound 13]
- IC50 (Dop [5]): 57 µM

SMILES: COc1cc(CC(C#N)C(O)c2ccccc2)cc(I)c1O (stereo not shown) [Compound 14]
- Dop inhibition in the fluorogenic assay (in words) (Dop [5]; Pup(33–63)-Glu(AMC) substrate, highest conc. 100 µM): complete loss of activity

— PMC8596589 (Chembiochem : a European journal of chemical biology, 2021)
